According to patent US20240016775A1, “ANTI-CORONAVIRUS APPLICATION OF POLY ADP RIBOSE POLYMERASE INHIBITOR” (FUKANG (SHANGHAI) HEALTH TECHNOLOGY CO., LTD, priority 2020, published 2024):
pEC50: −log10 of the molar value. “And” between values parts separate entries of the source, which are not always exact repeats. Identical values can stand only once. Like-named read-outs stand apart in the source and are kept apart here.

Key:
SARS-CoV-2 [1] = assay: microbe, parasite or virus in culture; assay type: cell-based; conditions: for inhibition at 3 µM: Severe acute respiratory syndrome coronavirus 2, Vero C1008, 48 h, read-out: Inhibiting rate, %, 3 μM
SARS-CoV-2 [2] = system: SARS-CoV-2
[3] = Tissue distribution study of CVL218 in rats (LC-MS-MS); assay type: in vivo, Sprague-Dawley rats; conditions: for Tissue concentration, Brain / Tissue concentration, Heart / Tissue concentration, Kidney / Tissue concentration, Liver / Tissue concentration, Lung / Tissue concentration, Spleen / Tissue concentration, Stomach: oral 20 mg/kg
Protocol: Sprague-Dawley rats were randomized into 3 time-point groups (3 animals/gender/group). At 3, 6 and 8 hours after CVL218 administration, animals were sacrificed, and the brain, heart, lung, liver, spleen, stomach and kidney tissues were collected. The tissue samples were washed with ice-cold physiological saline and weighed after excess liquid was removed with paper towels. After tissue sample solutions were weighed, they were stored at −20±2° C. until the drug concentration was determined by LC-MS-MS.

[4] = Pharmacokinetic study of CVL218 in rats; assay type: in vivo, Sprague-Dawley rats
Protocol: (§1) Sprague-Dawley rats were purchased from Animal Experiment Center of Shanghai, China. The experimental animals were housed in groups in wire cages, with no more than 6 animals per cage. The experimental conditions were good (temperature 25±2° C.; relative humidity 50±20%) and light-dark cycle (12 hours/12 hours). 144 Sprague-Dawley rats were randomized into 4 groups (18 animals/gender/group). CVL218 was administered at doses of 20, 40, 60 and 160 mg/kg. For all groups, 20 rats (10 animals/gender/group) were randomly selected, euthanized on day 28, and sections of various tissues and organs were obtained and frozen. Ten (5/gender/group) animals were euthanized after a 28-day drug-free period, and sections of their tissues and organs were taken and frozen. Six animals (3/gender/group) were euthanized after blood samples were collected. For pharmacokinetics and safety evaluations, the blood concentrations, clinical symptoms, mortality and body weight of animals were examined.

IL-6 production in PBMCs = assay type: cell-based; conditions: 12 hours
SARS-CoV-2 [5] = assay: Time-of-addition assay (duration of action) in Vero E6 cells; assay type: cell-based; conditions: CVL218 20 μM, remdesivir 10 μM, 14 h after infection
[6] = Safety study in cynomolgus monkeys (body weight); assay type: in vivo; conditions: 5/20/80 mg/kg, 28 days, then 28 days off
Protocol: Healthy male and female monkeys, aged 3-4 years, were purchased from Landao Biotechnology, Guangdong, China. Animals were fed in accordance with the Guide for Care and Use of Laboratory Animals. The animals were randomized (5 animals/gender/group), and were fed with CVL218 via nasogastric at dose levels of 0 (control), 5, 20 and 80 mg/kg. Monkeys were observed twice daily for any changes in viability/mortality and behavior, response to treatment or health status.

[7] = Body weight of rats, 28 days oral administration and 28 days without; assay type: in vivo, Sprague-Dawley rats; conditions: oral 20/60/160 mg/kg, then 28 days off
Protocol: as §1

Work on CC(=O)N[C@H]1[C@H]([C@H](O)[C@H](O)CO)OC(C(=O)O)=C[C@@H]1N=C(N)N [Zanamivir] yielded an inhibition at 3 µM (SARS-CoV-2 [1]; Vero-E6, MOI 0.05, 48 h) of -10.7%.
For CNCc1ccc(-c2cc3cc(F)cc(C(N)=O)c3o2)cc1.Cl [CVL218, mefuparib hydrochloride], the “Inhibiting rate, %” value (SARS-CoV-2 [1]; 3 μM, Vero-E6, MOI 0.05, 48 h, hydrochloride) was 35% and 35.16%, the pEC50 (SARS-CoV-2 [1]; different batches, hydrochloride, read-out: EC50 against SARS-CoV-2) was 5.12 and 5.29 and the “Cytopathic effect in infected cells” value (SARS-CoV-2 [2]; 25 μM) was “No apparent cytopathic effect”. For the same compound, the “Expression of the viral nucleoprotein (NP)” value (SARS-CoV-2 [2]; 5, 15, 25 μM, 14 h after infection, versus DMSO treated cells) was “significantly lower”, the “Tissue/serum drug concentration ratio, Brain” value [3] was 9.728 ± 1.130 and the “Tissue/serum drug concentration ratio, Heart” value [3] was 16.514 ± 1.348. The “Tissue/serum drug concentration ratio, Kidney” value [3] was 41.307 ± 5.391, the “Tissue/serum drug concentration ratio, Liver” value [3] was 46.780 ± 5.215 and the “Tissue/serum drug concentration ratio, Spleen” value [3] was 54.897 ± 6.250. The “Tissue/serum drug concentration ratio, Stomach” value [3] was 22.133 ± 7.130, the “Tissue/serum drug concentration ratio, Lung” value ([3]; hydrochloride) was 188 and 188.364 ± 28.467 and the “Tissue concentration, Brain” value ([3]; 180 min) was 3580 ± 416. The “Tissue concentration, Heart” value ([3]; 180 min) was 6077 ± 496, the “Tissue concentration, Kidney” value ([3]; 180 min) was 15201 ± 1984 and the “Tissue concentration, Liver” value ([3]; 180 min) was 17215 ± 1919. The “Tissue concentration, Lung” value ([3]; 180 min) was 69318 ± 10476, the “Tissue concentration, Spleen” value ([3]; 180 min) was 20202 ± 2300 and the “Tissue concentration, Stomach” value ([3]; 180 min) was 8145 ± 2624. For the same compound, the “Tissue concentration, Brain” value ([3]; 360 min) was 998 ± 220, the “Tissue concentration, Heart” value ([3]; 360 min) was 1390 ± 292 and the “Tissue concentration, Kidney” value ([3]; 360 min) was 3903 ± 594. The “Tissue concentration, Liver” value ([3]; 360 min) was 2187 ± 859, the “Tissue concentration, Lung” value ([3]; 360 min) was 18858 ± 2365 and the “Tissue concentration, Spleen” value ([3]; 360 min) was 6358 ± 1058. For the same compound, the “Tissue concentration, Stomach” value ([3]; 360 min) was 1871 ± 813, the “Tissue concentration, Brain” value ([3]; 480 min) was 317 ± 55 and the “Tissue concentration, Heart” value ([3]; 480 min) was 275 ± 80. For the same compound, the “Tissue concentration, Kidney” value ([3]; 480 min) was 993 ± 327, the “Tissue concentration, Liver” value ([3]; 480 min) was 213 ± 88 and the “Tissue concentration, Lung” value ([3]; 480 min) was 4183 ± 847. For the same compound, the “Tissue concentration, Spleen” value ([3]; 480 min) was 1475 ± 324, the “Tissue concentration, Stomach” value ([3]; 480 min) was 569 ± 293 and the AUC0-t ([4]; oral 20 mg/kg, Female) was 2196 ± 228 ngh/mL. For the same compound, the “AUC0-∞” value ([4]; oral 20 mg/kg, Female) was 2222 ± 241 ngh/mL, the Cmax ([4]; oral 20 mg/kg, Female) was 502 ± 80 ng/mL and the “MRT0-∞” value ([4]; oral 20 mg/kg, Female) was 3.16 h. For the same compound, the Tmax ([4]; oral 20 mg/kg, Female) was 3.0 h, the t1/2 ([4]; oral 20 mg/kg, Female) was 1.1 ± 0.16 h and the AUC0-t ([4]; oral 20 mg/kg, Male) was 1070 ± 176 ngh/mL. The “AUC0-∞” value ([4]; oral 20 mg/kg, Male) was 1111 ± 192 ngh/mL, the Cmax ([4]; oral 20 mg/kg, Male) was 234 ± 35 ng/mL and the “MRT0-∞” value ([4]; oral 20 mg/kg, Male) was 3.91 h. For the same compound, the Tmax ([4]; oral 20 mg/kg, Male) was 4.0 h, the t1/2 ([4]; oral 20 mg/kg, Male) was 1.19 ± 0.09 h and the AUC0-t ([4]; oral 20 mg/kg, Total) was 1633 ± 643 ngh/mL. For the same compound, the “AUC0-∞” value ([4]; oral 20 mg/kg, Total) was 1666 ± 639 ngh/mL, the Cmax ([4]; oral 20 mg/kg, Total) was 368 ± 157 ng/mL and the “MRT0-∞” value ([4]; oral 20 mg/kg, Total) was 3.54 h. For the same compound, the Tmax ([4]; oral 20 mg/kg, Total) was 3.5 h, the t1/2 ([4]; oral 20 mg/kg, Total) was 1.15 ± 0.13 h and the AUC0-t ([4]; oral 40 mg/kg, Female) was 5220 ± 1113 ngh/mL. The “AUC0-∞” value ([4]; oral 40 mg/kg, Female) was 5242 ± 1115 ngh/mL, the Cmax ([4]; oral 40 mg/kg, Female) was 940 ± 117 ng/mL and the “MRT0-∞” value ([4]; oral 40 mg/kg, Female) was 4.05 h. For the same compound, the Tmax ([4]; oral 40 mg/kg, Female) was 2.0 h, the t1/2 ([4]; oral 40 mg/kg, Female) was 1.29 ± 0.21 h and the AUC0-t ([4]; oral 40 mg/kg, Male) was 2802 ± 967 ngh/mL. The “AUC0-∞” value ([4]; oral 40 mg/kg, Male) was 2830 ± 983 ngh/mL, the Cmax ([4]; oral 40 mg/kg, Male) was 510 ± 259 ng/mL and the “MRT0-∞” value ([4]; oral 40 mg/kg, Male) was 4.51 h. It also gave a Tmax ([4]; oral 40 mg/kg, Male) of 3.0 h, a t1/2 ([4]; oral 40 mg/kg, Male) of 1.3 ± 0.33 h and an AUC0-t ([4]; oral 40 mg/kg, Total) of 4011 ± 1620 ngh/mL. The “AUC0-∞” value ([4]; oral 40 mg/kg, Total) was 4036 ± 1620 ngh/mL, the Cmax ([4]; oral 40 mg/kg, Total) was 725 ± 296 ng/mL and the “MRT0-∞” value ([4]; oral 40 mg/kg, Total) was 4.28 h. The Tmax ([4]; oral 40 mg/kg, Total) was 2.5 h, the t1/2 ([4]; oral 40 mg/kg, Total) was 1.3 ± 0.24 h and the “Reduction of CpG-induced IL-6 production” value (IL-6 production in PBMCs; 1 μM) was 50%. The “Reduction of CpG-induced IL-6 production” value (IL-6 production in PBMCs; 3 μM) was 72.65%, the “Antiviral activity, after the virus enters” value (SARS-CoV-2 [5]) was “significantly inhibit the replication after viral entry” and the “Antiviral activity, when the virus enters” value (SARS-CoV-2 [5]) was “partially antagonize viral entry”. For the same compound, the “Antiviral activity, whole process treatment” value (SARS-CoV-2 [5]; versus DMSO) was “stronger antiviral activity”, the “Body weight versus control group” value [6] was “no significant difference in body weight” and the “Body weight versus control group” value [7] was “no significant difference in body weight”.
Work on CCOC(=O)C1=C[C@@H](OC(CC)CC)[C@H](NC(C)=O)[C@@H](N)C1 [Oseltamivir] yielded an inhibition at 3 µM (SARS-CoV-2 [1]; Vero-E6, MOI 0.05, 48 h) of -13.5%.
